Data published in patent US7781580B2, “Stilbene derivatives as new cancer therapeutic agents” (Virginia Commonwealth University, priority 2007, dated 2010).
Counter-ions that a name gives are not always drawn. Like-named read-outs stand apart in the source and are kept apart here.

Assays:
[1] = test system: UCI101 ovarian cancer cells; assay: Alamar Blue cell growth inhibition, UCI101; format: cell-based
Outline: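 UCI101 cells at 50% confluence treated 48 h in triplicate with compound (0–10 μM series) or 0.1% DMSO vehicle as 100% control. Alamar Blue added at 1/10 volume for 2 h; absorbance read at 570 and 600 nm, percent growth inhibition from the manufacturer's formula.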

[2] = test system: UCI101 ovarian cancer cells; assay: Western blot of signal transduction events, UCI101; format: cell-based
Outline: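 UCI101 cells exposed to 0.1 μM compound for 0, 4, 8, 16 and 36 h, then harvested and analysed by Western blot. Probes covered G2-M regulators Cdc2, Cdc25c and BubR1, plus Akt phosphorylation.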

[3] = animal toxicity of 13a; settings: 50 mg/kg
[4] = test system: MDA-MB231 breast cancer cells; assay: Alamar Blue cell growth inhibition, MDA-MB231; format: cell-based; settings: Homo sapiens, MDA-MB-231; MDA-MB231
Experimental: Cell growth was measured by Alamar Blue™ staining and the percentage of cell growth inhibition was calculated and compared with control cells that were treated with 0.1% DMSO, the vehicles for the stilbene compounds.
(§1) Various cancer cell lines were grown in 96-well plates for drug sensitivity assays. Once cells achieved 50% confluence, the incubation media was changed to the same cell growth media with different concentrations of the tested compounds or vehicle alone. Cells were then incubated for 48 hours before the cell growth inhibition study. To determine the degree of cell growth inhibition, 1/10 volume of Alamar Blue™ solution was added to each well and optical density (OD) at 570 and 600 nm was determined. The percentage of growth inhibition was calculated according to the manufacturer's formula as follows: The percentage of growth is [(117216×A570)−(80586×A600)]/[(117216×A^o570)−(80586×A^o600)]×100. In this formula, A570 is the absorbance of the treated samples at 570 nm; A600 is the absorbance of the treated samples at 600 nm; A^o570 is the absorbance of the […] samples at 570 nm; and A^o600 is the absorbance of the untreated samples at 600 nm. The two constants, 117216 and 80586, are the extinction coefficients of Alamar Blue™ at 570 and 600 nm respectively. Each concentration was repeated in triplicate to minimize the error.
(§2) We first tested the cytotoxic effect of various stilbene derivatives for their in vitro efficacy of suppressing tumor cell proliferation. Cells were first plated in 96-well plates at 50% confluence and treated with 0, 0.01, 0.03, 0.1, 0.3, 1.0, 3.0, 10 μM concentrations of stilbene derivatives for 48 hours in triplicate. Alamar Blue™ reagent was added into each well at 1/10 volume and incubated for 2 hours before quantification of the absorbance at 570 and 600 nm.

[5] = water solubility of stilbene and carbamate prodrug (salts and free base); format: physicochemical; settings: for solubility: water, 20 °C, 20° C.
Experimental: Stilbene prodrugs may be made by attaching to a stilbene derivative of interest (e.g. a stilbene derivative with anti-tumor activity), chemical groups (or moieties) that render the stilbene derivative more water soluble than before such a modification is carried out. By “water soluble” we mean that more than 20 mg compound can be fully dissolved in 1 mL of water. Further, the chemical groups that are attached to the stilbene derivative to make the derivative water soluble are labile (i.e. removable) in that, upon exposure to in vitro or in vivo hydrolyzing conditions, the chemical groups are removed or dissociated from the stilbene derivative by hydrolysis, releasing the active, anti-tumor form of the stilbene derivative. The chemical groups which are attached may themselves be biologically active, and are, at least, not biologically injurious to cells or mammals. […] As illustrated, morfolinoethyl-urea, morfolinoethyl-carbamate and triethylene glycol (TEG) groups (5a, 5b, 5c, respectively) may be used for this purpose.

[6] = test system: SKOV3 ovarian cancer cells; assay: Alamar Blue cell growth inhibition, SKOV3; format: cell-based
Outline: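 SKOV3 cells at 50% confluence were treated 48 h with compounds, against 0.1% DMSO vehicle controls. Growth was read by Alamar Blue absorbance at 570 and 600 nm, with % growth inhibition from the manufacturer's extinction-coefficient formula. Each concentration was run in triplicate.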

[7] = test system: MiaPaCa2 pancreatic cancer cells; assay: Alamar Blue cell growth inhibition, MiaPaCa2; format: cell-based; settings: Homo sapiens, MIA PaCa-2; MiaPaCa2
Experimental: as §1, §2

[8] = test system: SNU423 hepatocellular carcinoma cells; assay: Alamar Blue cell growth inhibition, SNU423; format: cell-based
Outline: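 Cells at 50% confluence were treated for 48 h in triplicate with 0-10 μM compound or 0.1% DMSO vehicle. Alamar Blue was added at 1/10 volume for 2 h, and absorbance at 570 and 600 nm gave % growth via the manufacturer's extinction-coefficient formula relative to vehicle controls.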

[9] = preliminary toxicity and serum conversion of 5b; format: in vivo, mice
Source text: We next tested whether 5b could be converted into stilbene 4a in circulation. […] The in vivo efficacy of 5b and 5c was compared to stilbene 4a in a pilot study using 5 mice in each group.

[10] = test system: MDA-MB231 cells; assay: immunofluorescent staining of tubulin, MDA-MB231; format: cell-based; settings: CA4 10 nM, stilbene 4a 100 nM, vincristine 100 nM, 5b 3 μM; 16 hours
Source text: Nuclei were stained with 4′,6-diamidino-2-phenylindole (DAPI). Control cells show the reticular pattern of the microtubule network.

[11] = test system: UCI101 ovarian cancer cells (xenograft); assay: UCI101 xenograft in nude mice; format: in vivo
Experimental: (§3) (a) In vitro sensitivity of UCI101 cells toward three potential stilbene prodrugs, 5a-c, was tested in 96-well plates using Alamar Blue™ assays to determine cell growth inhibition. […] (b) 5b induces cell cycle change and apoptosis in UCI101 cells. Cells were incubated with 5b at 1, 3, 10 μM for 16 hours followed by PI staining and flow cytometry analysis. A subG0/1 population, representing apoptotic cells, appeared along with a decrease of the G1/G2 ratio after cells were treated with 3 μM 5b. Higher concentration (10 μM) of 5b completely killed cells, as was the case with stilbene 4a at 100 μM. (c) Cells treated with stilbene 4a and 5b were stained with phospho-histone 3B, a mitotic marker. The positive signals of phospho-histone 3B were shown in green and nuclei were stained with DAPI in blue. […] (d) In vivo efficacy of 5b compared with stilbene 4a. Nude mice were injected with UCI101 ovarian cancer cells and treated with 7 doses of 5b,c or stilbene 4a every 2-3 days. Tumor volume was calculated and plotted against days.
We next tested whether 5b could be converted into stilbene 4a in circulation. […] Blood was collected at 20, 60 and 240 min after injection for spot check of stilbene 4a level in serum. […] The in vivo efficacy of 5b and 5c was compared to stilbene 4a in a pilot study using 5 mice in each group.

[12] = test system: UCI101 cells; assay: immunofluorescent staining of tubulin, UCI101; format: cell-based; settings: CA4 10 nM, stilbene 4a 100 nM, 5b 3 μM; 16 hours
Source text: Nuclei were stained with DAPI.

[13] = test system: UCI101 cells; assay: cell cycle analysis (propidium iodide, FACScan), UCI101; format: cell-based
Experimental: Cells were stained with propidium iodide and analyzed with FACScan. Both 5b at 3 μM and stilbene 4a at 30 nM induce a subG0/1 population that represents the dead population. At higher concentrations of either compound, nearly all cells are dead.
as §3, with “Cells were incubated with 5b at 1, 3, 10 μM for 16 hours followed by PI staining and flow cytometry analysis.” left out, “Higher concentration (10 μM) of 5b completely killed cells, as was the case with stilbene 4a at 100 μM.” left out

[14] = test system: UCI101 cells; assay: phospho-histone 3B mitotic marker staining; format: cell-based
Experimental: as §3
The in vitro efficacy of these three compounds was tested in UCI101 cells in 96-well plate format and stained with Alamar blue™, The growth suppression was calculated as was done similarly to other test compounds. […] A dose response was then performed with various concentrations of 5b in vitro. […]

## COc1cc(/C=C\c2ccc3c(ccn3C)c2)cc(OC)c1 [13a, (Z)-5-[2-(3,5-Dimethoxy-phenyl)-vinyl]-1-methyl-1H-indole]
[1]; UCI101, 48 hours
  relative potency / activity: about equal in their potency
[2]; 0.1 μM
  phosphorylation of Stat3: more pronounced
[2]; 36 hours
  phosphorylation of Chk1: do not cause more phosphorylation of Chk1
[3]
  neurotoxicity: transient neurotoxicity was observed
[4]
  IC50: 10 nM
[5]
  water solubility (in words): poor water solubility
[6]; Homo sapiens, SK-OV-3, SKOV, read-out: IC50
  IC50: 50 to 100 nM
[6]; SKOV3, 48 hours
  effective / active concentration: 0.1 µM
[7]
  IC50: 10 nM
[8]; Homo sapiens, SNU-423, 48 h, read-out: IC50 (50% growth inhibition), SNU423, 48 hours
  IC50: 10 nM
[8]; SNU423, 48 hours
  effective concentration, blocking cell proliferation: 0.03 µM

## COc1cc(/C=C\c2ccc(OC)c(NC(=O)OCCN3CCOCC3)c2)cc(OC)c1 [5b, (Z)-{5-[2-(3,5-Dimethoxy-phenyl)-vinyl]-2-methoxy-phenyl}-carbamic acid 2-morpholin-4-yl-ethyl ester, oxalate salt]
[9]; 100 mg/kg by intraperitoneal injection
  tolerability: tolerated well without complication
[9]; 100 mg/kg ip
  persistence in circulation: stay in circulation longer than stilbene 4a
[10]
  microtubule pattern: completely disrupted microtubule formation
[1]; UCI101, from IC50
  fold less potent than stilbene 4a: about 100
[1]; UCI101, estimated
  IC50: ~3000 nM
[5]
  water solubility (in words): high solubility
[5]; HCl salt, read-out: water solubility, x HCl
  solubility: 759000 µg/mL
[5]; free base, read-out: water solubility, Free base
  solubility: < 1000 µg/mL
[5]; oxalate salt, read-out: water solubility, x (COOH)2
  solubility: 5900 µg/mL
[11]; 7 doses every 2-3 days
  tumor growth versus control mice: only compound that achieved statistical significance compared with control mice
[11]; 7 doses every 2-3 days, 5 mice in each group
  tumor growth suppression: about 40%
[11]; mouse, in vivo
  mouse weight: did not show any significant change
[12]
  microtubule pattern: partial disruption of microtubules
[13]; 1 μM
  cell death / cell cycle arrest at 1 μM: not effective in inducing cell death or cell cycle arrest
[13]; 3 μM
  cell death / cell cycle arrest at 3 μM: showed a significant activity
[13]; 10 μM
  cell death / cell cycle arrest at 10 μM: nearly all cells have committed to cell death
[13]; 10 μM 5b equivalent to 100 nM stilbene 4a
  fold less potent than stilbene 4a in vitro: 100
[13]; 4a at 30, 100 nM, 5b at 1, 3, 10 μM
  cell cycle effect: induced similar cell cycle arrest as stilbene 4a
[13]; 24 hours
  concentration inducing a subG0/1 (dead) population: 3 µM
[14]
  phospho-histone 3B positive cells: dramatic increase in positive cells
